Patent US20210387966A1, “2-AMINO-N-HETEROARYL-NICOTINAMIDES AS NAV1.8 INHIBITORS” (Merck Sharp & Dohme Corp., priority 2018, published 2021)

What follows are molecules tested against T1, human Nav1.8 channels (Homo sapiens, UniProt Q9Y5Y9) (assay: Nav1.8 Qube automated patch-clamp assay). Settings: human Nav1.8 stably expressed in HEK 293 cells; whole-cell voltage clamp, room temperature; resting or inactivated state not specified; read-out: IC50 values (nM) for Examples in the Nav1.8 Qube Assay.
T1 construct: expressed in transfected cells
Format: cell-based
Experimental: Compounds were tested on human Nav1.8 and Nav1.5 channels stably expressed in human embryo kidney (HEK) 293 cells. Sodium current measurements on Qube® were conducted as follows: automated 384-well patch-clamp assays on the Qube® platform (Sophion Biosciences) were used to measure the inhibition of sodium flow through human Nav1.8 and Nav1.5 channels. Whole-cell voltage-clamp recordings were performed in QChips® (Sophion Biosciences) at room temperature. Nav1.8 current measurements on Qube® were obtained as follows: Nav1.8 currents were elicited with a 10 second 1 Hertz (Hz) pulse train from a holding potential of −90 millivolts (mV), delivered to the cells once per minute in the control condition (DMSO only) and after compound addition. The 1 hertz pulse train stimulation consisted of ten test pulses to 10 millivolt (mV) for 20 milliseconds (ms), each of which was followed by a 980 millisecond repolarization to −67 millivolts. At the end of the 10 second pulse train stimulation, a second hyperpolarization step to −100 millivolt (mV) was used to recover Nav1.8 from fast inactivation. The peak currents elicited by the 1st and 10th test pulses were used to determine IC50 values for resting inhibition and inactivated state inhibition. Nav1.5 current measurements on Qube® were obtained as follows: Nav1.5 currents were elicited with a 20 second 3 Hertz pulse train in the control condition (DMSO only) and after compound addition. The pulse train consisted of sixty 20 millisecond test pulses to 0 millivolt from a holding potential of −80 millivolt (mV). The average peak currents elicited by the last 3 test pulses were used to determine IC50 values for Nav1.5 inhibition.
The following buffers were used for the Qube® recordings: External buffer for Nav1.8 Qube® recording: 150 NaCl, 2 CaCl2, 5 KCl, 1 Mg Cl2, 10 HEPES, 12 Dextrose; External buffer for Qube® Nav1.5 recording: 120 N-Methyl-D-Glucamine, 40 NaCl, 1 KCl, 2.7 CaCl2, 5 HEPES, 0.5 MgCl2: and Internal buffer for Qube® recording: 120 CsF, 30 CsCl, 10 EGTA, 5 HEPES, 5 NaF, 2 MgCl2.
For all Qube® experiments offline analysis was used to determine percent inhibition as a function of drug concentration. IC50 values were determined by fitting to the Hill equation.

T1 sequence (Q9Y5Y9 whole entry): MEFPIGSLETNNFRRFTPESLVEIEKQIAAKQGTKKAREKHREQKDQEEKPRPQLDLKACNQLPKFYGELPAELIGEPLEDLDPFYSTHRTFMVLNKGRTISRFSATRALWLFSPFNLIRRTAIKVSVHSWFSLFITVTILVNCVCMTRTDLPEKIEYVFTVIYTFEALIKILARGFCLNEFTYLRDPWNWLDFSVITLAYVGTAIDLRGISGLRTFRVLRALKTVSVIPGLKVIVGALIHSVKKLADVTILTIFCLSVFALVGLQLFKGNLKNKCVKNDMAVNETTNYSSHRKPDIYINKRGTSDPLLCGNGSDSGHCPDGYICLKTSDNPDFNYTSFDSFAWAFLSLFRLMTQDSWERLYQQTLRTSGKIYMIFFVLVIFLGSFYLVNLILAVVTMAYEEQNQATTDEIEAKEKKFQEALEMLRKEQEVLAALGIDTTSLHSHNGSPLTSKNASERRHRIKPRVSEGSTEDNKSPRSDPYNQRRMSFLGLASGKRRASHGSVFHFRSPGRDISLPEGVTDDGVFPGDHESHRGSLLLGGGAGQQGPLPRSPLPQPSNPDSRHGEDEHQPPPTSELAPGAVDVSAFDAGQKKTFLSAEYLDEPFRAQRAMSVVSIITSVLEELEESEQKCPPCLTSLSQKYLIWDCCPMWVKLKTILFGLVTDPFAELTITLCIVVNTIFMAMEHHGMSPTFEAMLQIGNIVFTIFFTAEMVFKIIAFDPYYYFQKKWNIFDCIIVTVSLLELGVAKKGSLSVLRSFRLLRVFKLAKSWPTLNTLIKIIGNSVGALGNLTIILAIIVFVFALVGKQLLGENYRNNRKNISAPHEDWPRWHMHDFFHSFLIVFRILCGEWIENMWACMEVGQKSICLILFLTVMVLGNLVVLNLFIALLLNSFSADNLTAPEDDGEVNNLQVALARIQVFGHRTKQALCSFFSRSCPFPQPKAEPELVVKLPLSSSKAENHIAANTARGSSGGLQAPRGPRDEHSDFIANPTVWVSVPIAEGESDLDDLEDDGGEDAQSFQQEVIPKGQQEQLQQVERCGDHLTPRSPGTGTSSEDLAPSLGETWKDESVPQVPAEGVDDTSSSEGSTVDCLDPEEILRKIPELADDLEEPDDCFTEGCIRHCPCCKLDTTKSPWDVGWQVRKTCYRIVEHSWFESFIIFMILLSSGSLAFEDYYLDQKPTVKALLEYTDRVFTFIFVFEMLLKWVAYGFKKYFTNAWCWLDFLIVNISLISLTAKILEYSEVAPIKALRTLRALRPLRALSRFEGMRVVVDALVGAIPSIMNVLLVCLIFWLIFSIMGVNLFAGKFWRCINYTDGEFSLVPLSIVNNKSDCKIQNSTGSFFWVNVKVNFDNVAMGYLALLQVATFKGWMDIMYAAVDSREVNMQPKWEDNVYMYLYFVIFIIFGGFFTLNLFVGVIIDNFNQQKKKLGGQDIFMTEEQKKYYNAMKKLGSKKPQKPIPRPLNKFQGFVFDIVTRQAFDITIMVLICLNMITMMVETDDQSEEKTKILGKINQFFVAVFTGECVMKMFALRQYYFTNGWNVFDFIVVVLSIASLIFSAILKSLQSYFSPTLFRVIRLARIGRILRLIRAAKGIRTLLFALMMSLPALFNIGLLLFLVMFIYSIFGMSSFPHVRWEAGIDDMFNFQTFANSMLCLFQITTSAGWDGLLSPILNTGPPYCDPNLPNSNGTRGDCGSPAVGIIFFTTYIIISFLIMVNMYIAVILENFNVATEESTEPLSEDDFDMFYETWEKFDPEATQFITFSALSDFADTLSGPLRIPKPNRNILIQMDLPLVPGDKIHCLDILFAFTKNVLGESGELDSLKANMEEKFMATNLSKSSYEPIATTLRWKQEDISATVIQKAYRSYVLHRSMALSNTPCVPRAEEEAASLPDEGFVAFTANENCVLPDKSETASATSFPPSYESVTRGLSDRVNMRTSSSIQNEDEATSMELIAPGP

Q: NS(=O)(=O)c1cc(NC(=O)c2cc(C(F)(F)F)cnc2N2CC3CCC3(C(F)(F)F)C2)ccn1 (single isomer, unassigned) [Example 58, N-(2-sulfamoyl-4-pyridyl)-5-(trifluoromethyl)-2-[(1S,5S or 1R,5R)-1-(trifluoromethyl)-3-azabicyclo[3.2.0]heptan-3-yl]pyridin-3-carboxamide] was tested. Which IC50 did it give?
A: 10 nM

Q: With CC1CN(c2ncc(C(F)(F)F)cc2C(=O)Nc2ccnc(S(N)(=O)=O)c2)CCC(C(F)(F)F)O1 (single isomer, unassigned) [Example 123, 2-((2S,7S or 2R,7R)-2-methyl-7-(trifluoromethyl)-1,4-oxazepan-4-yl)-N-(2-sulfamoylpyridin-4-yl)-5-(trifluoromethyl)nicotinamide] as the molecule, how does the IC50 read?
A: 28 nM

Q: With Cc1nc(N2CCCC(F)(F)CC2)c(C(=O)Nc2cnn(S(C)(=O)=O)c2)c(C)c1Cl [Example 32, 5-chloro-2-(4,4-difluoroazepan-1-yl)-4,6-dimethyl-N-[1-(methylsulfonyl)-1H-pyrazol-4-yl]pyridine-3-carboxamide] as the molecule, how does the IC50 read?
A: 4.3 nM

Q: How did the IC50 turn out when CC1CN(c2ncc(C(F)(F)F)cc2C(=O)Nc2ccnc(C(N)=O)c2)CCC1(F)F (single isomer, unassigned) [Example 158, N-(2-carbamoyl-4-pyridyl)-2-[(3S or 3R)-4,4-difluoro-3-methyl-1-piperidyl]-5-(trifluoromethyl)-pyridine-3-carboxamide] was run?
A: 41 nM

Q: With CS(=O)(=O)c1cc(NC(=O)c2cc(C(F)(F)F)cnc2N2C[C@H]3CC[C@H]3C2)ccn1 [Example 152, 2-[(1R,5S)-3-azabicyclo[3.2.0]heptan-3-yl]-N-(2-methylsulfonyl-4-pyridyl)-5-(trifluoro-methyl)pyridine-3-carboxamide] as the molecule, how does the IC50 read?
A: 155 nM

Q: With NS(=O)(=O)c1cc(NC(=O)c2cc(C(F)(F)F)c(C3CC3)nc2N2CCCC(F)(F)CC2)ccn1 [Example 185, 6-cyclopropyl-2-(4,4-difluoroazepan-1-yl)-N-(2-sulfamoylpyridin-4-yl)-5-(trifluoromethyl)nicotinamide] as the molecule, how does the IC50 read?
A: 3.8 nM

Q: With CC1(C)CN(c2ncc(C(F)(F)F)cc2C(=O)Nc2ccnc(S(N)(=O)=O)c2)CC(C(F)(F)F)O1 (single isomer, unassigned) [Example 136, (S or R)-2-(2,2-dimethyl-6-(trifluoromethyl)-morpholino)-N-(2-sulfamoylpyridin-4-yl)-5-(trifluoromethyl)nicotinamide] as the molecule, how does the IC50 read?
A: 494 nM

Q: With NS(=O)(=O)c1cc(NC(=O)c2cc(C3CC3)c(C(F)(F)F)nc2N2CCC(F)(F)CC2)ccn1 [Example 181, 5-cyclopropyl-2-(4,4-difluoropiperidin-1-yl)-N-(2-sulfamoylpyridin-4-yl)-6-(trifluoromethyl)nicotinamide] as the molecule, how does the IC50 read?
A: 17 nM

Q: Which IC50 does the source give for NS(=O)(=O)c1cc(NC(=O)c2cc(C(F)(F)F)cnc2N2CC(C(F)(F)F)C2)ccn1 [Example 93, N-(2-sulfamoyl-4-pyridyl)-5-(trifluoromethyl)-2-[3-(trifluoromethyl)azetidin-1-yl]pyridine-3-carboxamide] here?
A: 707 nM

Q: NS(=O)(=O)c1cc(NC(=O)c2cc(-c3ccccc3)cnc2N2CCC(F)(F)CC2)ccn1 [Example 205, 2-(4,4-difluoropiperidin-1-yl)-5-phenyl-N-(2-sulfamoylpyridin-4-yl)nicotinamide] was tested. Which IC50 did it give?
A: 71 nM

Q: For NS(=O)(=O)c1cc(NC(=O)c2cc(C(F)(F)F)cnc2N2CCCO[C@H](C(F)(F)F)C2)ccn1 [Example 104, (S)-N-(2-sulfamoylpyridin-4-yl)-5-(trifluoromethyl)-2-(2-(trifluoromethyl)-1,4-oxazepan-4-yl)nicotinamide], which IC50 is on record?
A: 56 nM

Q: With Cc1nc(N2CCCCC2)c(C(=O)Nc2cc[nH]c(=O)c2)c(C)c1Cl [Example 211, 5-chloro-4,6-dimethyl-N-(2-oxo-1,2-dihydropyridin-4-yl)-2-(piperidin-1-yl)-nicotinamide] as the molecule, how does the IC50 read?
A: 357 nM

Q: Which IC50 does the source give for NS(=O)(=O)c1cc(NC(=O)c2cc(C(F)(F)F)cnc2N2CCC[C@H]2C(F)(F)F)ccn1 [Example 126, N-(2-sulfamoylpyridin-4-yl)-5-(trifluoromethyl)-2-[(2S)-2-(trifluoromethyl)pyrrolidin-1-yl]pyridine-3-carboxamide] here?
A: 21 nM

Q: C[C@@H]1CN(c2ncc(C(F)(F)F)cc2C(=O)Nc2ccnc(S(N)(=O)=O)c2)C[C@@H](C(F)(F)F)O1 [Example 102, 2-((2R,6S)-2-methyl-6-(trifluoromethyl)morpholino)-N-(2-sulfamoylpyridin-4-yl)-5-(trifluoromethyl)nicotinamide] was tested. Which IC50 did it give?
A: 27 nM

Q: For NS(=O)(=O)c1cc(NC(=O)c2cc(C(F)(F)F)cnc2N2C[C@@H]3[C@H](C2)C(F)(F)C3(F)F)ccn1 [Example 60, N-(2-sulfamoylpyridin-4-yl)-2-((1R,5S)-6,6,7,7-tetrafluoro-3-azabicyclo[3.2.0]heptan-3-yl)-5-(trifluoromethyl)nicotinamide], which IC50 is on record?
A: 14 nM

Q: For COc1ccc(C(=O)Nc2ccnc(S(N)(=O)=O)c2)c(N2CCCC(F)(F)CC2)n1 [Example 142, 2-(4,4-difluoroazepan-1-yl)-6-methoxy-N-(2-sulfamoylpyridin-4-yl)nicotinamide], which IC50 is on record?
A: 29 nM

Q: For NS(=O)(=O)c1cc(NC(=O)c2cc(C(F)(F)F)cnc2N2CCC3OCCC32)ccn1 (stereo not shown) [Example 96, 2-(2,3,3,a,5,6,6a-hexahydrofuro[3,2-b]pyrrol-4-yl)-N-(2-sulfamoyl-4-pyridyl)-5-(trifluoromethyl)pyridine-3-carboxamide], which IC50 is on record?
A: 1620 nM

Q: N#Cc1cc(NC(=O)c2cc(C(F)(F)F)cnc2N2CCCCCC2)ccn1 [Example 197, 2-(azepan-1-yl)-N-(2-cyano-4-pyridyl)-5-(tri-fluoromethyl)pyridine-3-carboxamide] was tested. Which IC50 did it give?
A: 244 nM

Q: CS(=O)(=O)c1cc(NC(=O)c2cc(C(F)(F)F)cnc2N2CCCCCC2)ccn1 [Example 140, 2-(azepan-1-yl)-N-(2-methylsulfonyl-4-pyridyl)-5-(trifluoromethyl)-pyridine-3-carboxamide] was tested. Which IC50 did it give?
A: 91 nM

Q: NS(=O)(=O)c1cc(NC(=O)c2cc(C(F)(F)F)cnc2N2CC(F)(F)C(F)(F)C2)ccn1 [Example 92, N-(2-sulfamoyl-4-pyridyl)-2-(3,3,4,4-tetrafluoropyrrolidin-1-yl)-5-(trifluoromethyl)pyridine-3-carboxamide] was tested. Which IC50 did it give?
A: 659 nM

Q: With C[C@H]1CN(c2ncc(C(F)(F)F)cc2C(=O)Nc2ccnc(S(N)(=O)=O)c2)C[C@H](C(F)(F)F)O1 [Example 103, 2-((2S,6R)-2-methyl-6-(trifluoromethyl)morpholino)-N-(2-sulfamoylpyridin-4-yl)-5-(trifluoromethyl)nicotinamide] as the molecule, how does the IC50 read?
A: 166 nM

Q: Cc1nc(N2CCC(F)(F)C(C)C2)c(C(=O)Nc2ccnc(S(N)(=O)=O)c2)cc1Cl (single isomer, unassigned) [Example 54, (S or R)-5-chloro-2-(4,4-difluoro-3-methylpiperidin-1-yl)-6-methyl-N-(2-sulfamoylpyridin-4-yl)nicotinamide] was tested. Which IC50 did it give?
A: 2.1 nM

Q: For NS(=O)(=O)c1cc(NC(=O)c2cc(C(F)(F)F)cnc2N2CC3CC(F)(F)C3C2)ccn1 (single isomer, unassigned) [Example 65, 2-((1S,5R or 1R,5S)-6,6-difluoro-3-azabicyclo[3.2.0]heptan-3-yl)-N-(2-sulfamoylpyridin-4-yl)-5-(trifluoromethyl)nicotinamide], which IC50 is on record?
A: 94 nM

Q: For O=C(Nc1cc[nH]c(=O)c1)c1cc(C(F)(F)F)cnc1N1CCCC(F)(F)CC1 [Example 210, 2-(4,4-difluoroazepan-1-yl)-N-(2-oxo-1,2-dihydropyridin-4-yl)-5-(trifluoromethyl)-nicotinamide], which IC50 is on record?
A: 86 nM

Q: NS(=O)(=O)c1cc(NC(=O)c2cc(-n3cccn3)cnc2N2CCC(F)(F)CC2)ccn1 [Example 207, 2-(4,4-difluoropiperidin-1-yl)-5-(1H-pyrazol-1-yl)-N-(2-sulfamoylpyridin-4-yl)nicotinamide] was tested. Which IC50 did it give?
A: 1080 nM

Q: For Cc1nc(N2CCC(F)(F)CC2)c(C(=O)Nc2ccnc(S(N)(=O)=O)c2)cc1OCC(F)(F)F [Example 183], which IC50 is on record?
A: 82 nM

Q: For C[C@@H]1CN(c2ncc(C(F)(F)F)cc2C(=O)Nc2ccnc(S(N)(=O)=O)c2)C[C@H](C)[C@]1(C)O [Example 75, 2-((3R,4s,5S)-4-hydroxy-3,4,5-trimethylpiperidin-1-yl)-N-(2-sulfamoylpyridin-4-yl)-5-(trifluoromethyl)nicotinamide], which IC50 is on record?
A: 233 nM

Q: For CC1CC(F)(F)CCN1c1ncc(C(F)(F)F)cc1C(=O)Nc1ccnc(S(N)(=O)=O)c1 (single isomer, unassigned) [Example 73, (R or S)-2-(4,4-difluoro-2-methylpiperidin-1-yl)-N-(2-sulfamoylpyridin-4-yl)-5-(trifluoromethyl)nicotinamide], which IC50 is on record?
A: 225 nM
